Source: patent US20250176598A1, “AMIDE COMPOUNDS AND THEIR USE AS FLAVOR MODIFIERS” (Firmenich Incorporated, priority 2022, published 2025)

Target: T1, T1R umami taste receptor (Homo sapiens, UniProt Q7RTX0+Q7RTX1)
T1 sequence (Q7RTX1 21-841): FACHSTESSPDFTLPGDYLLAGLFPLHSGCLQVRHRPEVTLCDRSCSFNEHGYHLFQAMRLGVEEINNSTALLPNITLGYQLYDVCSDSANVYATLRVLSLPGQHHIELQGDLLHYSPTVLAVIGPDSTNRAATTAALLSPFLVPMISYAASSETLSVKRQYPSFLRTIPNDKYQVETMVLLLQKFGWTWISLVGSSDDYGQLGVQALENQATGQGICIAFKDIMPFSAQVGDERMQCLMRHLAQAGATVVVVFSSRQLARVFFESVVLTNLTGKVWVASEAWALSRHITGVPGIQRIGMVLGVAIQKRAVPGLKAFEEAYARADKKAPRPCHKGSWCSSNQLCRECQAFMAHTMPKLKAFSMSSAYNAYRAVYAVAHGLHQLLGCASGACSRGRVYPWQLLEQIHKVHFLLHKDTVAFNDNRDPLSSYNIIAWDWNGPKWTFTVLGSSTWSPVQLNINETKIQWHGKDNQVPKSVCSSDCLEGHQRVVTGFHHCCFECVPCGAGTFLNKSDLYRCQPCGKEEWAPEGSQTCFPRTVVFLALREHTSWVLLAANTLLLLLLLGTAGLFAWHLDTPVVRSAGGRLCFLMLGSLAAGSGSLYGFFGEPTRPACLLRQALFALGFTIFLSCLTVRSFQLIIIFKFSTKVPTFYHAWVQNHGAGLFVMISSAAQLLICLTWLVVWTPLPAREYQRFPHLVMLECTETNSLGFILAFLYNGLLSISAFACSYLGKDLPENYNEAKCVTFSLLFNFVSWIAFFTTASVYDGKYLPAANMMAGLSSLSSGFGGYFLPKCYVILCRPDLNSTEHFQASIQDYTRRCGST
T1 sequence (Q7RTX0 21-852): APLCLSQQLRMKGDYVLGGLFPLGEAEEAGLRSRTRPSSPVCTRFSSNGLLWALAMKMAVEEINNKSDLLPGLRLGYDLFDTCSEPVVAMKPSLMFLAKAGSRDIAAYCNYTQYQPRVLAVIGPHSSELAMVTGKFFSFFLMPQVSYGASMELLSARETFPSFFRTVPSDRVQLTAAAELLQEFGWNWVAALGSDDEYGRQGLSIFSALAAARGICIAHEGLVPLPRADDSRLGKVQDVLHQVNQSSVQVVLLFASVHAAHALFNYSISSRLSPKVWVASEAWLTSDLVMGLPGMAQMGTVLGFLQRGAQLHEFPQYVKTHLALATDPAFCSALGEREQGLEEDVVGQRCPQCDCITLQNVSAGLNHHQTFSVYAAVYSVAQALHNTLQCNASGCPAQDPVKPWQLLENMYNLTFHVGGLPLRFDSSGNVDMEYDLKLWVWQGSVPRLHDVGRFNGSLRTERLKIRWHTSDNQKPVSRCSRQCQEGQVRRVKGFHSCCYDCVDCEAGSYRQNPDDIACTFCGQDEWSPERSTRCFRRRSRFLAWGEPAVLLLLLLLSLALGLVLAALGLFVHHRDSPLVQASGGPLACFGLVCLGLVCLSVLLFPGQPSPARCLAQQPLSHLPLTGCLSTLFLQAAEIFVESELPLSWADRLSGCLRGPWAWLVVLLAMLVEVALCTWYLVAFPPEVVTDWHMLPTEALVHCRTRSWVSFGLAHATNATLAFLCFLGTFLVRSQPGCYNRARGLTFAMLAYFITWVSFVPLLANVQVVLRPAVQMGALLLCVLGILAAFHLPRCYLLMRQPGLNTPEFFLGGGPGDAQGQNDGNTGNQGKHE
Assay: in vitro cell-based assay, cells expressing the T1R umami taste receptor; enhancement of MSG
Conditions: for EC50: cells that express the T1R umami taste receptor, dose-binding curves; for MSG Enh. Ratio: MSG enhancement ratio at a particular concentration (concentration not given)
Protocol: Each of Compounds 101-145 was synthesized according to one of the general procedures set forth above in Examples 1 and Example 2. Thereafter, the compounds were tested in an in vitro cell-based assay having cells that express the T1R umami taste receptor. Dose-binding curves were recorded and the EC50 was determined for enhancement of MSG binding. Table 2 sets forth the calculated EC50 values for certain tested compounds as well as the MSG enhancement ratio at a particular concentration.

Compound | EC50 [µM] | MSG Enh. Ratio
COc1ccc(/C=C/C(=O)N[C@@H](Cc2ccc(OC)cc2)C(=O)O)cc1 [Compound 140, (S,E)-3-(4-methoxyphenyl)-2-(3-(4-methoxyphenyl)acrylamido)propanoic acid] | > 50 | 1.8
COc1ccc(C[C@H](NC(=O)/C=C/c2ccc(OC)c(OC)c2)C(=O)O)cc1 [Compound 141, (S,E)-2-(3-(3,4-dimethoxyphenyl)acrylamido)-3-(4-methoxyphenyl)propanoic acid] | > 50 | 1.6
COc1ccc(/C=C/C(=O)N[C@@H](CCC(=O)O)C(=O)O)cc1 [Compound 142, (E)-(3-(4-methoxyphenyl)acryloyl)-L-glutamic acid] | > 50 | 2.2
COc1ccc(/C=C/C(=O)N[C@@H](CCC(=O)O)C(=O)O)cc1O [Compound 143, (E)-(3-(3-hydroxy-4-methoxyphenyl)acryloyl)-L-glutamic acid] | > 50 | 1.0
COc1ccc(/C=C/C(=O)N[C@H](CCC(=O)O)C(=O)O)cc1O [Compound 144, (E)-(3-(3-hydroxy-4-methoxyphenyl)acryloyl)-D-glutamic acid] | > 50 | 
CC(C)/C=C/C(=O)N[C@@H](CCC(=O)O)C(=O)O [Compound 145, (E)-(4-methylpent-2-enoyl)-L-glutamic acid] | > 50 | 1.0

The next lines start with the values.

EC50 [µM] | MSG Enh. Ratio | Compound
> 50 |  | COc1ccc(/C=C/C(=O)N[C@H](C(=O)O)C(C)C)cc1 [Compound 136, (E)-(3-(4-methoxyphenyl)acryloyl)-L-valine]
7.74 | 4.7 | COc1ccc(/C=C/C(=O)N[C@H](CC(C)C)C(=O)O)cc1 [Compound 137, (E)-(3-(4-methoxyphenyl)acryloyl)-D-leucine]
> 50 | 1.0 | COc1ccc(/C=C/C(=O)N[C@@H](CC(C)C)C(=O)O)cc1 [Compound 138, (E)-(3-(4-methoxyphenyl)acryloyl)-L-leucine]
> 50 | 1.5 | CC[C@H](C)[C@H](NC(=O)/C=C/c1ccc(OC)cc1)C(=O)O [Compound 139, ((E)-3-(4-methoxyphenyl)acryloyl)-L-isoleucine]
